From patent US20170107207A1, “AMINOPYRAZOLONE DERIVATIVE” (DAIICHI SANKYO COMPANY, LIMITED, priority 2014, published 2017)
pIC50: −log10 of the molar value.

How the values were obtained:
TIP48/TIP49 complex = molecular target: T1, TIP48/TIP49 complex (Homo sapiens, UniProt Q9Y230+Q9Y265); assay: ATPase assay of TIP48/TIP49 complex (ADP-Glo); assay type: biochemical; conditions: concentration at which the ATPase activity was inhibited by 50%
T1 construct: made in house; host or cells: E. coli
How it was run: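 Compound was tested over 10 four-fold concentrations, 200 μM down to 0.0007 μM at 2% DMSO, against E. coli-derived human rTIP48/rTIP49 for 1.5 h at room temperature, pH 7.5 with ATP. ATP hydrolysis was read as ADP-Glo luminescence, normalised to complex-only and no-complex wells, then fitted to dose-response curves.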

HT-29 = assay: Cell growth inhibition test, HT-29; assay type: cell-based; conditions: Homo sapiens, 72 h; HT-29, Large intestine cancer, 3 days, CellTiter-Glo
Procedure: (§1) A cell growth inhibition test was carried out by treating a cultured cancer cell line with a test compound for a given period and then counting the number of viable cells by CellTiter-Glo Luminescent Cell Viability Assay (manufactured by Promega Corp.).
(§2) The following cells were inoculated to a 384-well plate containing the compound prepared in advance at predetermined concentrations. […]
(§3) The cells thus inoculated were cultured at 37° C. for 3 days under 5% CO2. […] Then, luminescence intensity was measured using a plate reader.
(§4) The number of viable cells and luminescence intensity have been confirmed to correlate with each other. Therefore, the rate of cell growth was calculated according to the following expression: Rate of cell growth (T/C %) of a test compound-supplemented well=100×[(B−C)/(A−C)] wherein A represents the luminescence intensity (final culture date) of a test compound-free well; B represents the luminescence intensity (final culture date) of a test compound-containing well; and C represents the luminescence intensity (day of cell inoculation) of a well at the start of contact of the cells with the test compound.
(§5) T/C % at the concentration of each of the serially diluted test compounds was determined. […]

D283 Med = assay: Cell growth inhibition test, D283 Med; assay type: cell-based; conditions: Homo sapiens, 72 h, Brain tumor Central Nerve System, 3 days, CellTiter-Glo
Procedure: as §1, §2, §3, §4, §5

COLO 205 = assay: Cell growth inhibition test, COLO 205; assay type: cell-based; conditions: Homo sapiens, 72 h; COLO 205, Large intestine cancer, 3 days, CellTiter-Glo
Procedure: as §1, §2, §3, §4, §5

T1 sequence (Q9Y230 whole entry): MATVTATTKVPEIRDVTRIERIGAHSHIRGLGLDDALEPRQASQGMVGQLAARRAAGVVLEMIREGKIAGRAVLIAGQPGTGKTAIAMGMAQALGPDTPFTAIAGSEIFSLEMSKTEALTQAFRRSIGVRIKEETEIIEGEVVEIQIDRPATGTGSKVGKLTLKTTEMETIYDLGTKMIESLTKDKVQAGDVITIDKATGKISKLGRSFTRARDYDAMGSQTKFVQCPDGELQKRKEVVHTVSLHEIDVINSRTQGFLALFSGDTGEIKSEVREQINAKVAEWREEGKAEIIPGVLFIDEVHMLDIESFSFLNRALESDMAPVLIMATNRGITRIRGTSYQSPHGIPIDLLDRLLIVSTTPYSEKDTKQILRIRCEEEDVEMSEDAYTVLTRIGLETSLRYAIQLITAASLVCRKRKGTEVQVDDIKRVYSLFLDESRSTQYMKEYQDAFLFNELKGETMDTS
T1 sequence (Q9Y265 whole entry): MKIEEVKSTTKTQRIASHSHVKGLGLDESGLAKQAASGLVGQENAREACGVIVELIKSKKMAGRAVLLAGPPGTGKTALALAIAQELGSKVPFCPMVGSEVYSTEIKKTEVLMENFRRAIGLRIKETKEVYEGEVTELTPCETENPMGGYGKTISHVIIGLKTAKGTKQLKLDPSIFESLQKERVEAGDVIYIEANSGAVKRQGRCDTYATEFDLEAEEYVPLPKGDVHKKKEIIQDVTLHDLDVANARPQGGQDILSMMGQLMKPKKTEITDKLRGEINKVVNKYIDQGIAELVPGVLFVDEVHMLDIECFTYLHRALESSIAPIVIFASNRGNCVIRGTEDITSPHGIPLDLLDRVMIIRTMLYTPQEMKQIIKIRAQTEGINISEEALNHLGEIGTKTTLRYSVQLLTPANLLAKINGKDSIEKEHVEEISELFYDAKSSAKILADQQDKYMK

pIC50 (TIP48/TIP49 complex)	GI50 (HT-29) [nM]	GI50 (COLO 205) [nM]	Structure (SMILES)	GI50 (D283 Med) [nM]
7.15	510	310	CCOc1ccc(Cl)cc1C(=O)NCC(C)(C)CC(=O)Nc1c([C@H](C)CN(C)C)n(C)n(-c2ccccc2)c1=O [Example 68, 5-Chloro-N-[4-({5-[(1R)-2-(dimethylamino)-1-methylethyl]-1-methyl-3-oxo-2-phenyl-2,3-dihydro-1H-pyrazol-4-yl}amino)-2,2-dimethyl-4-oxobutyl]-2-ethoxybenzamide]	130
7.32	1200	850	CCOc1ncc(Cl)cc1C(=O)NCC(C)(C)CC(=O)Nc1c([C@H](C)CN(C)C)n(C)n(-c2ccccc2)c1=O [Example 73, 5-Chloro-N-[4-({5-[(1R)-2-(dimethylamino)-1-methylethyl]-1-methyl-3-oxo-2-phenyl-2,3-dihydro-1H-pyrazol-4-yl}amino)-2,2-dimethyl-4-oxobutyl]-2-ethoxypyridine-3-carboxamide]	310
7.41	920	720	CCOc1cc(F)c(Cl)cc1C(=O)NCC(C)(C)CC(=O)Nc1c(COC)n(C)n(-c2ccccc2)c1=O [Example 113, 5-Chloro-2-ethoxy-4-fluoro-N-(4-{[5-(methoxymethyl)-1-methyl-3-oxo-2-phenyl-2,3-dihydro-1H-pyrazol-4-yl]amino}-2,2-dimethyl-4-oxobutyl)benzamide]	230
